According to US20140088178A1, “COMBINATION OF ANTI-CLUSTERIN OLIGONUCLEOTIDE WITH ANDROGEN RECEPTOR ANTAGONIST FOR THE TREATMENT OF PROSTATE CANCER” (THE UNIVERSITY OF BRITISH COLUMBIA, priority 2011, published 2014):
e = 2'-O-(2-methoxyethyl) (MOE); d = 2'-deoxy (DNA)

Legend:
CRPC LNCaP xenografts = assay: Castration-resistant LNCaP xenograft in castrated male athymic nude mice; format: in vivo; details: week 16 from start of treatment; euthanasia for tumour volume exceeding 10% of body weight
Method: The effects of combination treatment on castration-resistant LNCaP tumor growth were assessed in castrated male athymic nude mice. Male athymic nude mice were inoculated with LNCaP cells in Matrigel in two sites of mouse flank lesion. […]. Custirsen (10 mg/kg/each dose) or SCRB (10 mg/kg/each dose) was injected i.p. once daily for the first week and then three times per week. […] Tumor volume was measured once per week. Serum PSA was determined weekly. PSA doubling time (PSAdt) and velocity were calculated by the log-slope method (PSAt−PSAinitial×e^mt). All animal procedures were performed according to the guidelines of the Canadian Council on Animal Care and appropriate institutional certification.
Male athymic mice (Harlan Sprague-Dawley, Inc.) were injected s.c. with 1×10^6 LNCaP cells. When tumors grow in 150 mm^3 and serum PSA was >50 ng/ml, mice are castrated. […] Each experimental group consisted of 13 mice. […] Tumor volume and serum PSA was measured as previously described (Sowery et al., 2008). All animal procedures were performed according to the guidelines of the Canadian Council on Animal Care. Each three mice xenografts were sacrificed at 7 days after start treatment and the rest were harvested the end of the study and snap-frozen in liquid nitrogen. […]

clusterin (CLU) = assay: Western blot of clusterin (CLU) expression after AR pathway inhibition; format: cell-based, human
Method: The immune complexes were recovered with protein-G sepharose for 2 h and then washed with radioimmunoprecipitation assay buffer (RIPA) at least thrice, centrifuged, and submitted to SDS-PAGE, followed by Western blotting. […] Cells are harvested and performed for western blot analysis.

[1] = system: GRP78, ATF4, IRE1, CHOP and cleaved-ATF6; assay: ER stress marker expression after AR1; format: cell-based; details: concomitant with CLU induction
Source text: ER stress activates a complex intracellular signaling pathway, called the unfolded protein response (UPR), which is tailored to re-establish protein homeostasis (proteostasis) by inhibiting protein translation and promoting ER-associated protein degradation via the ubiquitin-proteasome system (UPS).

[2] = system: Akt and p90Rsk phosphorylation; assay: Western blot of Akt and p90Rsk phosphorylation; format: cell-based, human; details: FIG. 42B
Method: YB-1 binds to CLU promoter leading to increased CLU expression after ER stress (Shiota et al., 2011). […]. Western blot analysis is done using phospho Akt, phospho ERK, Akt and ERK antibodies. […]. […] After 48 h treatment, western blot analysis is done using phospho Akt, phospho ERK, phospho mTOR, phospho P70S6K, Akt, ERK, mTOR and P70S6K antibodies.

LNCaP cells [3] = assay: Autophagy induction; format: cell-based, human
[4] = humans; cited from earlier work
LNCaP cells [5] = assay: Flow cytometry of apoptotic sub-G1 fraction (propidium iodide staining); format: cell-based, human; details: 500 nmol/L custirsen or ScrB, 10 μmol/L AR1, 48 hrs
Method: After a time course exposure, cell growth was measured by crystal violet assay as previously described (cleave et al., 2005). Detection and quantitation of apoptotic cell cycle population were analyzed by flow-cytometry (Beckman Coulter Epics Elite; Beckman, Inc.) based on 2N and 4N DNA content as previously described (Lamoureux et al., 2011). For CSS condition, LNCaP cells were plated in RPMI with 5% FBS switched to CSS at the next day, and treatment was started same as FBS condition. Each assay was done in triplicate three times.
Combination treatment enhances LNCaP apoptosis in flow cytometry analysis. […] The proportion of cells in sub-G0, G0-G1, S, G2-M is determined by propidium iodide staining. […] P value represents between treatment arms and their respective controls *p<0.05, **p<0.01, ***p<0.001 (Wilcoxon matched-pairs test).

[6] = system: AR transcriptional activity; assay: PSA-luciferase reporter assay of R1881 induced AR transcriptional activity; format: cell-based, human; details: LNCaP cells; 500 nmol/L custirsen, 10 μmol/L AR1, 1 nmol/L R1881
Method: Effect of combination treatment on AR transactivation and translocation. […] Cells were harvested, and luciferase activity was determined. Columns represent means of at least three independent experiments done in triplicate. PSA activation was normalized Renilla-luciferase activity.
LNCaP cells were seeded at a density of 5×10^4 in 12-well plates and transfected the following day with custirsen or SCRB. […] Reporter assays were normalized to Renilla and luciferase activity expressed by Firefly to Renilla ratio in arbitrary light units. All experiments were carried out in triplicate wells and repeated five times using different preparations of plasmids.
The effects of combination treatment on androgen-induced, AR-mediated gene activation were evaluated.

CRPC = details: combined with docetaxel chemotherapy; cited from earlier work
AR = target: T1, AR (Homo sapiens, UniProt P10275, T878A); assay: Western blot of AR protein expression; details: FIG. 17: LNCaP, 500 nM custirsen 48 h, then 10 μM AR1 48 hours
T1 sequence (P10275 1-920 T878A): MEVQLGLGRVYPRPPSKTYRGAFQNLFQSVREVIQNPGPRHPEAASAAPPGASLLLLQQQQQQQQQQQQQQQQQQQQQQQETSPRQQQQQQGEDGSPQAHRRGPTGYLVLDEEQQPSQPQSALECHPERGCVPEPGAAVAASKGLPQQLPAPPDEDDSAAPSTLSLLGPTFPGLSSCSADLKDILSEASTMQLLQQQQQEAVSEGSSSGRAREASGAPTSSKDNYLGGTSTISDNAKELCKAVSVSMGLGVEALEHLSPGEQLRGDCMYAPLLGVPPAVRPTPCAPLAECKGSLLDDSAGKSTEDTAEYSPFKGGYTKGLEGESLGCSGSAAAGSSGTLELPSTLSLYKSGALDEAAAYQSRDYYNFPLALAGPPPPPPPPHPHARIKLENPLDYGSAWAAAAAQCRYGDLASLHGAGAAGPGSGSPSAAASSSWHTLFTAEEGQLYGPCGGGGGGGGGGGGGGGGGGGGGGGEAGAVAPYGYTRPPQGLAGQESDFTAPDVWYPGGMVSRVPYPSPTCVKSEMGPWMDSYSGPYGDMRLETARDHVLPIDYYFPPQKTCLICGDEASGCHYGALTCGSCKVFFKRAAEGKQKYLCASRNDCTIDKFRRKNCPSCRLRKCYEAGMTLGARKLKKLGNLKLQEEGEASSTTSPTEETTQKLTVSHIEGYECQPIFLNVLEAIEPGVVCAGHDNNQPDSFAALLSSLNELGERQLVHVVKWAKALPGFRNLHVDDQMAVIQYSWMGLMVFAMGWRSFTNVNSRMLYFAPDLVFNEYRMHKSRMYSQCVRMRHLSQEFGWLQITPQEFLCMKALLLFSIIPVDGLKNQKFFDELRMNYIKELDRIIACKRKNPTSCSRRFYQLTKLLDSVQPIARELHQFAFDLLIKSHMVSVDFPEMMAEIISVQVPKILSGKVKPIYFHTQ
Method: Cells (1×10^6) were seeded in 10 cm dishes with RPMI medium containing 5% FBS. The next day, cells were transfected with 500 nM custirsen or control for 48 h.
AR expression is detected by western blot. […] “OTR” means cells treated with oligofectamime only.

CNC(=O)c1ccc(N2C(=S)N(c3ccc(C#N)c(C(F)(F)F)c3)C(=O)C2(C)C)cc1F [AR1, 4-(3-(4-cyano-3-(trifluoromethyl)phenyl)-5,5-dimethyl-4-oxo-2-thioxoimidazolidin-1-yl)-2-fluoro-N-methylbenzamide]
overall survival (CRPC LNCaP xenografts): about 40%
clusterin protein expression (clusterin (CLU); LNCaP, 10 μmol/L for 48 hrs, 5% FBS or 5% CSS, western blot): strongly increases
ER stress markers [1]: up-regulation
Akt and p90Rsk phosphorylation [2]: increases
autophagy (LNCaP cells [3]): induces autophagy
maximum tolerated dose [4]: 240 mg/day
side effects [4]: fatigue

CC(=O)O[C@@H]1[C@@H](OC(C)=O)[C@@H](O)[C@H](Oc2c(-c3ccc(O)cc3)oc3cc(O)cc(O)c3c2=O)O[C@H]1C [SL101]
effect on AR1 induced up-regulation of CLU (clusterin (CLU); inhibitor added with AR1): abrogates

ScrB: scrambled antisense oligonucleotide control, 5′-CAGCGCTGACAACAGTTTCAT-3′ (SEQ ID NO: 44) (2'-O-methoxyethyl modified control oligonucleotide, pattern not given here, further chemistry not given here)
apoptosis (sub-G1 fraction) (LNCaP cells [5]): 15.2%

custirsen: antisense oligonucleotide reducing clusterin expression, CAGCAGCAGAGTCTTCATCAT (Seq. ID No.: 3), phosphorothioate backbone, 2′-O-methoxyethyl at nucleotides 1-4 and 18-21 (sugars from the 5' end e4 d13 e4, all phosphorothioate, methylation of C not given here; listed as Homo sapiens)
apoptosis (sub-G1 fraction) (LNCaP cells [5]): 20%
reduction of R1881 induced AR transcriptional activity (PSA luciferase transactivation) [6]: 90%
HR (CRPC): 0.50
gain in overall survival (CRPC): 7 month
reduced death rate (CRPC): 50%
reduction of AR protein expression (AR): no effect
